# US20260216349A1, “STABILIZED BIOPOLYMER COMPOSITION, THEIR MANUFACTURE AND USE” (BASE SE, priority 2023, published 2026)
# Conditions: pH 7.4
# Method: A 10% (m/m) aqueous solution of the test substances (butronics as well as reference materials Kolliphor EL and HS15) is prepared in phosphate buffer pH 7.4. For each test substance and reference three 5 ml brown glass ampoules with screw caps are filled with 5 g of the prepared aqueous solution.
# The respective API (as for example Fenofibrate/Itraconazole/Nilotinib) to be analyzed is then added (about 30 mg-500 mg per 5 g of 10% test substance solution, enough that the added powder doesn't dissolve anymore) in order to obtain a supersaturated solution.
# After stirring for 72 h at room temperature, each sample is filtered through a 0.22 μm PVDF filter and the concentration of the respective API in the filtrate is quantified by HPLC.
# The average of the 3 replicates per API is calculated and the obtained concentrations are put in relation to Kolliphor EL, which is set to 100%.
substance,measurement,value
POE sorbitan monooleate [Polysorbate 80],Solubilization of small molecules (mean value in %),96%
